The record followed here is ChEMBL document CHEMBL4765442, “Anti-Giardia Drug Discovery: Current Status and Gut Feelings” (J Med Chem, 2020).

Format in all cases: functional, organism-based
Assay [1] relates to Giardia intestinalis. The assay is described as follows: Antigiardial activity against Giardia lamblia WBC6 incubated for 48 hrs. The settings on record: Giardia duodenalis, WBC6, 48 h.
The test system of assay [2] is Giardia intestinalis. The assay is described as follows: Antigiardial activity against metronidazole-resistant Giardia lamblia 713-M3 incubated for 48 hrs. Conditions: Giardia duodenalis, 713-M3, 48 h.
The subject of assay [3] is Giardia intestinalis. The assay is described as follows: Antigiardial activity against Giardia lamblia 713 incubated for 48 hrs. The settings on record: Giardia duodenalis, 713, 48 h.

In general, EC50 refers to the midpoint of the concentration-response curve. `CCOc1ccc2cc(-c3nc(C(C)(C)C)n4ccnc(N)c34)ccc2c1`: the values for the EC50 with Giardia intestinalis [1], in the assay with Giardia intestinalis [2] and with Giardia intestinalis [3] were 600 nM, 600 nM and 1200 nM, respectively.
